Reference: patent US6649610B1, “2-oxo-1, 4-benzoxazine compounds for treatment of tuberculosis” (priority 2001, dated 2003)

How the values were obtained:
white mice = experiment: Animal toxicity bioassay (acute toxicity, intraperitoneal); type: in vivo; settings: intraperitoneal injection, observed 14 days
Protocol: (§1) Animal Toxicity Bioassay. Acute toxicity was studied on white mice of both sexes with weight ranging between 18-26 grams under intraperitoneal injection of 2% solution of tested compound in starch (the compound was dissolved in starch slime and injected) on the basis of 0.1 ml of solution per 10 g of the animal weight. Each dose was tested on the group of 6 animals that were observed during 14 day period. (This method was approved by the Pharmacology committee of Russian Ministry of Health and has been widely used since 1968.) Averaged lethal dose (LD50) of the compound was computed using results of experiments on 5-7 groups of animals using the method of Litchfield and Wilkinson. (Belenkii M. L. “Elements of quantative determination of the pharmacological effect,” Leningrad, 1963, 71 pages).

[1] = test system: M. tuberculosis ATCC 25177; experiment: BACTEC 460 radiometric growth inhibition bio-assay; type: cell-based, Mycobacterium tuberculosis; settings: final concentration of 0.1 mg/ml; BACTEC 12B medium; growth index
[2] = test system: human and non-human myeloma; experiment: Activity against myeloma
[3] = Animal toxicity bioassay (acute toxicity, intraperitoneal); type: in vivo; settings: both sexes, mouse, in vivo, ip; white mice, intraperitoneal injection, observed 14 days
Protocol: as §1

man = settings: cited from earlier work
white mouse = settings: intraperitoneal injection; cited from earlier work

Compound	LD50 (white mice)	percent activity against Mycobacterium tuberculosis [1]	activity against human and non-human myeloma [2]	LD50 at 14 day [3]	acute ingestion amount leading to mild toxicity (man; adults, acute ingestion)	ingestion amount that may be fatal (man; adults, acute ingestion)	ingestion amount usually fatal if not appropriately treated (man; adults, acute ingestion)	overall mortality rate for acute isoniazid toxicity (man; estimated)	hepatitis-related death rate (man; individuals who complete a full course of prophylaxis)	mortality rate (man; individuals who develop overt isoniazid-induced hepatitis)	LCL0 (lowest published lethal concentration) (man; man)	overall hepatitis-related death rate (man; patients using isoniazid prophylaxis)	LD50 (lethal dose 50 percent kill) (white mouse)
O=C(Oc1c(-c2nc3ccccc3oc2=O)c(=O)n2c(c1C(=O)c1ccccc1)c(=O)oc1ccccc12)c1ccccc1 [1F-18, 4-benzoyl-3-benzoyloxy-2-(2-oxo-2H-1,4-benzoxazin-3-yl)pyrido[2,1-c][1,4]benzoxazin-1,5-dione]	> 2000 mg/kg	95%	100%										
COc1ccc(C(=O)C(C(=O)Oc2c(C)cc(C)cc2C)=C2Nc3ccccc3OC2=O)cc1 [1F-19, 2,4,6-trimethylphenyl 2-(3,4-dihydro-2-oxo-2H-1,4-benzoxazin-3-ylidene)-3-p-methoxyphenyl-3-oxo-propanoate]		97%		> 1000 mg/kg									
NNC(=O)c1ccncc1 [isoniazid, isonicotinic acid hydrazide]					1.5 g	6 to 10 g	15 g	19%	23.2-57.9 /100,000	10%	100 mg/kg	approximately 0.001%	100 mg/kg
